According to paper PMC11452294, “Periplasmic binding proteins Bug69 and Bug27 from Bordetella pertussis are in vitro high‐affinity quinolinate binders with a potential role in NAD biosynthesis” (FEBS Open Bio, 2024):

Key:
Bug69 = biological target: T1, Bug69 (Bordetella pertussis, UniProt Q7VUA0); experiment: intrinsic tryptophan fluorescence quenching titration; format: binding; settings: 20 °C; 0.1 μM protein; excitation 295 nm, fit at 328 nm
T1 construct: gene BP3219; mature periplasmic domain, signal peptide omitted, pET28c NcoI/XhoI, C-terminal His tag kept; E. coli BL21(DE3); denatured and renatured to remove endogenous ligands
T1 sequence (Q7VUA0 32-332): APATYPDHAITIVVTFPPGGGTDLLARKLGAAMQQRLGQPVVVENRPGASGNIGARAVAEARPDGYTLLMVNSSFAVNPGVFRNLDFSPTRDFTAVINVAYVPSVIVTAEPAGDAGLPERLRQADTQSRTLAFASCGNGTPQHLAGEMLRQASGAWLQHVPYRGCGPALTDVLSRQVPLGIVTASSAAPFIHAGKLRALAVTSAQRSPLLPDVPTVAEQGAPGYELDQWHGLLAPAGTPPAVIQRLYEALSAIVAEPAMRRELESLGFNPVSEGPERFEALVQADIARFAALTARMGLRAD

Bug27 = biological target: T2, Bug27 (Bordetella pertussis, UniProt Q7W019); experiment: as above; format: binding
T2 construct: gene BP0682; mature periplasmic domain, signal peptide omitted, pET28c NcoI/HindIII, C-terminal His tag kept; E. coli BL21(DE3); denatured and renatured to remove endogenous ligands
T2 sequence (Q7W019 30-330): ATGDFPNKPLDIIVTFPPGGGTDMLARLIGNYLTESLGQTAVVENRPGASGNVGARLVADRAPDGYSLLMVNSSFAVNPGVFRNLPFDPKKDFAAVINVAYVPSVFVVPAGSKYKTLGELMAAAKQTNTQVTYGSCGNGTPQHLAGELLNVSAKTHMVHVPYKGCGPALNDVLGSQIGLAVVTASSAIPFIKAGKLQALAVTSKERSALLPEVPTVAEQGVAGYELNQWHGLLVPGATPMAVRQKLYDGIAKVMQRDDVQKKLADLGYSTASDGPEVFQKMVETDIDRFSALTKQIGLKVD

O=C(O)c1cccnc1C(=O)O [quinolinate]
Kd (Bug69): 0.07 ± 0.022 µM
Kd (Bug27): 0.136 ± 0.028 µM
